One data set relates to platelet aggregation. The data set can be described thus: in vitro inhibitory effect on platelet aggregation induced by 10 μM ADP in platelet rich plasma. It counts as cell-based. As to conditions: for IC50: read-out: in vitro antiaggregant effect IC50 (50% platelet aggregation inhibiting concentration). The text has this: IC50 = 50% platelet aggregation inhibiting concentration.

A further data set has as its system anaesthetized rat. The data set can be described thus: hypotensive effect on the anaesthetized rat. It counts as in vivo. As to conditions: PGI2 = 100.
For data set [1] the following is noted: acid; enol ether; listed as natural prostacyclin; cited from earlier work.
The subject of a further data set is asthmatic patients. As to conditions: inhaled; cited from earlier work.
The subject of a further data set is man. As to conditions: infused in man; cited from earlier work.
The next data set concerns blood platelet. The note with it: infused in man; cited from earlier work.
The subject of data set [2] is uterus. As to conditions: monkey; cited from earlier work.
The subject of data set [3] is uterus. The note with it: person; cited from earlier work.
The subject of the next data set is test animals. The note with it: cited from earlier work.
In the next data set the test system is gastric mucous membrane. The note with it: ulcers induced by e.g. acetyl salicylic acid and indomethacin; test animals, e.g. the rat; cited from earlier work.
For data set [4] the following is noted: product of reaction of PGI2 with acid; cited from earlier work.
A further data set concerns hamster. The data set can be described thus: in vitro luteolytic activity in the hamster compared with PGI2 at equally active antiaggregant doses.
A short description of data set [5]: antiulcerogenic activity compared with PGI2 at equi-active antiaggregant doses. It counts as in vivo.
[6] abbreviates: 10 μM ADP, platelet rich plasma.

Values after ≈ are worked out from the molar mass of the structure shown. “Also recorded” adds a separate entry of the source. Like-named read-outs stand apart in the source and are kept apart here.

With `CCCCC[C@H](O)/C=C/[C@@H]1[C@H]2C/C(=C/CCCC(=O)O)O[C@H]2C[C@H]1O` [(1), 6,9α-oxide-11α,15(S)-dihydroxy-prosta-5(Z),13(E)-dienoic acid], the IC50 in the data set with platelet aggregation (setting [6]) amounted to 0.001 mg/L (≈ 0.00284 µM). Further, in the data set on anaesthetized rat, the “hypotensive effect potency ratio” value came out at 100. Moreover, the “chemical stability of natural prostacyclin” value in [1] was “extremely acid sensitive; also recorded: marked chemical instability”. Moreover, the prevention of bronchoconstriction result in the data set with asthmatic patients is given as “prevents aspecifically induced (e.g. by nebulized water or by effort) bronchocostriction”. Moreover, the “hypotensive and vasodilator activity” value in the data set with man is “hypotensive and vasodilator activity”. In the data set with blood platelet, the “blood platelet anti-aggregant and disaggregant properties” value was “blood platelet anti-aggregant and disaggregant properties”. The uterus stimulant action result in the data set on uterus [2] and with uterus [3] was “uterus stimulant action” in each case. Also, the luteolytic activity entry with test animals is listed as “luteolytic activity”. Moreover, in the data set with gastric mucous membrane, the “protection of gastric mucous membrane from ulcers” value is reported as “able to protect the gastric mucous membrane from ulcers”.

For `CCCCC[C@H](O)/C=C/[C@@H]1[C@@H](CC(=O)CCCCC(=O)O)[C@@H](O)C[C@H]1O` [6-keto-PGF1α], the “biological activity characteristic of natural prostacyclin” value in [4] is given as “almost none of the biological activity”.

For the molecule “5c,13t-11α,15S-dihydroxy-9a-deoxy-9a,7a-homo-dimethylene-16-phenoxy- 17,18,19,20-tetranor,prostacycla-5,13-dienoic acid”, the “in vitro luteolytic activity relative to PGI2” value with hamster was 8 times greater.

Consider “dl-5,13t-11α,15S-dihydroxy-9a-deoxy-9a,9b-dimethylene-17-cyclohexyl- 18,19,20-trinor-prostacycla-5,13-dienoic acid”, for which, in the data set with hamster, the “in vitro luteolytic activity relative to PGI2” value came to 5 times greater.

For `CCCCC[C@H](O)/C=C/[C@@H]1[C@H]2C/C(=C/CCCC(=O)O)C[C@H]2C[C@H]1O` [(2), 5t,13t-11α,15S-dihydroxy-9a-deoxy-9a-methylene-prostacycla-5,13-dienoic acid], in the data set with platelet aggregation (Platelet), the IC50 came out at 0.025 mg/L (≈ 0.0713 µM). Further, the “hypotensive effect potency ratio” value with anaesthetized rat turned out to be 1.15.

Take “5t,13t-11α,15S-dihydroxy-9a-deoxy-9a,7a-homo-dimethylene-prostacycla- 5,13-dienoic acid [(3)]”: the “in vitro antiaggregant effect IC50 (50% platelet aggregation inhibiting concentration)” value with platelet aggregation (setting [6]) is listed as 20 ηg/ml. Moreover, the “hypotensive effect potency ratio” value with anaesthetized rat is recorded as 0.25.

Turning to “dl-5,13t-11α,15S-dihydroxy-9a-deoxy-7-nor-methylene-prostacycla-5,13-dienoic acid”, the “antiulcerogenic activity relative to PGI2” value in [5] was “ten times greater”.

The values are drawn from patent US4307112A, “9-Deoxy-9A-methylene isosteres of PGI2 and process for their preparation” (Farmitalia Carlo Erba S.p.A., priority 1978, dated 1981).
